Our source for the Kd values is paper PMC10573954, “Crystal Structure of DNA Replication Protein SsbA Complexed with the Anticancer Drug 5-Fluorouracil” (International Journal of Molecular Sciences, 2023).

The target of assay [1] is T1, SsbA (SaSsbA), single-stranded DNA-binding protein (Staphylococcus aureus, UniProt A0A0D1JHQ1, R18A).
T1 construct: gene ssb; recombinant His-tagged SaSsbA R18A (pET21b)
T1 sequence (A0A0D1JHQ1 1-167 R18A): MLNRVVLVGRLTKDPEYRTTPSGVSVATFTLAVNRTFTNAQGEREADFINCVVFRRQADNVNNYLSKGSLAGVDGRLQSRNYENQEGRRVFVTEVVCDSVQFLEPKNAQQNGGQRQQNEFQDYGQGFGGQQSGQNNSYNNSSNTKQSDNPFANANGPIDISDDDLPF
The assay is described as follows: intrinsic fluorescence quenching titration.

Assay [2] deals with T2, SsbA (SaSsbA), single-stranded DNA-binding protein (Staphylococcus aureus, UniProt A0A0D1JHQ1).
T2 construct: gene ssb; recombinant His-tagged SaSsbA (167 aa, pET21b); aa 105–167 not observed in the crystal structure
The assay is described as follows: crystal structure ([…] Å) and intrinsic fluorescence quenching titration.

Regarding `O=c1[nH]cc(F)c(=O)[nH]1` [5-FU, 5-fluorouracil], the Kd was 498 ± 13.5 µM in assay [1] and 55.9 ± 0.7 µM in assay [2].

In general, Kd refers to a measure of binding affinity in units of concentration. Read a high Kd as weaker binding.
